{
  "source": "paper PMC9311154",
  "about": "(British Journal of Clinical Pharmacology, 2022)",
  "key": {"CYP3A4": {"molecular_target": "CYP3A4 (Homo sapiens, UniProt P08684)", "sequence (P08684 whole entry)": "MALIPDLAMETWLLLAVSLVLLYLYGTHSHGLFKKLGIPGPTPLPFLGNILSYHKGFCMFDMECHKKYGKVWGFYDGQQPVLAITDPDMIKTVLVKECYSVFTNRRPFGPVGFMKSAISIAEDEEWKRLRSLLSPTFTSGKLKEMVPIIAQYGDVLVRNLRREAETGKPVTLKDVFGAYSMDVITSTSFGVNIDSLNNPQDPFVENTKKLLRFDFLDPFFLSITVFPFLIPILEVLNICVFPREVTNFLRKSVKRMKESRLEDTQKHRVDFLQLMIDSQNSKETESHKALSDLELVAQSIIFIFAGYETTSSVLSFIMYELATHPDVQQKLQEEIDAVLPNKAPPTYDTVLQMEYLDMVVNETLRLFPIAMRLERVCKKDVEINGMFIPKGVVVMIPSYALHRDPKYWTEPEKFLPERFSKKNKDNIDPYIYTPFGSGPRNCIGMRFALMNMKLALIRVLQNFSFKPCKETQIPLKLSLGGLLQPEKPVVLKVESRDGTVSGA", "assay": "Midazolam interaction study", "type": "in vivo", "details": "for AUC ratio day 1/day−1, point estimate geometric LS means (geometric 90% CI) / AUC ratio day 10/day−1, point estimate geometric LS means (geometric 90% CI): ANOVA"}, "Safety and tolerability": {"assay": "Safety and tolerability", "type": "in vivo, human", "details": "midazolam alone"}, "[1]": {"details": "BAY 2433334 25 mg OD + Midazolam"}, "[2]": {"details": "BAY 2433334 75 mg OD + Midazolam"}, "[3]": {"details": "day 1, coadministration of BAY 2433334 25 mg"}, "[4]": {"details": "day 1, coadministration of BAY 2433334 75 mg"}, "[5]": {"details": "day 10, BAY 2433334 25 mg once daily"}, "[6]": {"details": "BAY 2433334 25 mg treatment sequence"}, "[7]": {"details": "BAY 2433334 75 mg treatment sequence"}},
  "data": [
    {"smiles": "OCc1ncc2n1-c1ccc(Cl)cc1C(c1ccccc1F)=NC2", "note": "[α‐Hydroxymidazolam, α‐hydroxymidazolam]", "values": [
      {"measurement": "AUC ratio day 1/day−1, point estimate geometric LS means (geometric 90% CI)", "setting": "CYP3A4; [1]", "result": "1.0650 (0.9661–1.1741)"},
      {"measurement": "AUC ratio day 10/day−1, point estimate geometric LS means (geometric 90% CI)", "setting": "CYP3A4; [1]", "result": "1.0560 (0.9595–1.1622)"},
      {"measurement": "AUC ratio day 1/day−1, point estimate geometric LS means (geometric 90% CI)", "setting": "CYP3A4; [2]", "result": "0.9856 (0.9206–1.0551)"},
      {"measurement": "AUC ratio day 10/day−1, point estimate geometric LS means (geometric 90% CI)", "setting": "CYP3A4; [2]", "result": "0.9864 (0.9169–1.0612)"},
      {"measurement": "AUC ratio day 10/day−1, point estimate geometric LS means (geometric 90% CI)", "setting": "CYP3A4; BAY 2433334 75 mg OD + Midazolam, listed as α‐hydroxymidazolam", "result": "0.9864 [0.9169–1.0612]"},
      {"measurement": "tmax", "setting": "CYP3A4; Day 1, midazolam 7.5 mg with BAY 2433334 25 mg OD, median (range)", "result": "0.742 (0.500–4.00) h"},
      {"measurement": "tmax", "setting": "CYP3A4; Day 1, midazolam 7.5 mg with BAY 2433334 75 mg OD, median (range)", "result": "0.750 (0.483–4.00) h"},
      {"measurement": "tmax", "setting": "CYP3A4; Day 10, midazolam 7.5 mg with BAY 2433334 25 mg OD, median (range)", "result": "0.750 (0.483–4.00) h"},
      {"measurement": "tmax", "setting": "CYP3A4; Day 10, midazolam 7.5 mg with BAY 2433334 75 mg OD, median (range)", "result": "0.750 (0.483–2.00) h"},
      {"measurement": "tmax", "setting": "CYP3A4; Day −1, midazolam 7.5 mg alone, BAY 2433334 25 mg OD group, median (range)", "result": "0.708 (0.483–4.00) h"},
      {"measurement": "tmax", "setting": "CYP3A4; Day −1, midazolam 7.5 mg alone, BAY 2433334 75 mg OD group, median (range)", "result": "0.750 (0.500–3.00) h"},
      {"measurement": "increase in the AUC", "setting": "CYP3A4; [3]", "result": 4.4, "unit": "%"},
      {"measurement": "decrease in the AUC", "setting": "CYP3A4; [4]", "result": 1.5, "unit": "%"},
      {"measurement": "increase in the AUC", "setting": "CYP3A4; [5]", "result": 6.0, "unit": "%"},
      {"measurement": "time to maximum plasma concentrations, range across treatments", "setting": "CYP3A4; with and without BAY 2433334", "result": "0.583 to 0.750", "unit": "h"}
    ]},
    {"smiles": "Cc1ncc2n1-c1ccc(Cl)cc1C(c1ccccc1F)=NC2", "note": "[Midazolam, midazolam]", "values": [
      {"measurement": "Adverse event(s) of special interest", "setting": "Safety and tolerability; [6]", "result": "0 Number (%)"},
      {"measurement": "Study drug‐related adverse event(s)", "setting": "Safety and tolerability; [6]", "result": "0 Number (%)"},
      {"measurement": "Study procedure‐related adverse event(s)", "setting": "Safety and tolerability; [6]", "result": "3 (12.5%) Number (%)"},
      {"measurement": "Adverse event(s) of special interest", "setting": "Safety and tolerability; [7]", "result": "0 Number (%)"},
      {"measurement": "Study drug‐related adverse event(s)", "setting": "Safety and tolerability; [7]", "result": "0 Number (%)"},
      {"measurement": "Study procedure‐related adverse event(s)", "setting": "Safety and tolerability; [7]", "result": "1 (4.2%) Number (%)"},
      {"measurement": "AUC ratio day 1/day−1, point estimate geometric LS means (geometric 90% CI)", "setting": "CYP3A4; [1]", "result": "1.0415 (0.9659–1.1230)"},
      {"measurement": "AUC ratio day 10/day−1, point estimate geometric LS means (geometric 90% CI)", "setting": "CYP3A4; [1]", "result": "1.0630 (0.9859–1.1461)"},
      {"measurement": "AUC ratio day 1/day−1, point estimate geometric LS means (geometric 90% CI)", "setting": "CYP3A4; [2]", "result": "1.0451 (0.9785–1.1164)"},
      {"measurement": "AUC ratio day 10/day−1, point estimate geometric LS means (geometric 90% CI)", "setting": "CYP3A4; [2]", "result": "1.1736 (1.0963–1.2564)"},
      {"measurement": "AUC ratio day 10/day−1, point estimate geometric LS means (geometric 90% CI)", "setting": "CYP3A4; BAY 2433334 75 mg OD + Midazolam, listed as midazolam", "result": "1.1736 [1.0963–1.2564]"},
      {"measurement": "increase in the AUC", "setting": "CYP3A4; [3]", "result": 4.2, "unit": "%"},
      {"measurement": "increase in the AUC", "setting": "CYP3A4; [4]", "result": 4.5, "unit": "%"},
      {"measurement": "increase in the AUC", "setting": "CYP3A4; [5]", "result": 6.3, "unit": "%"},
      {"measurement": "increase in the AUC", "setting": "CYP3A4; day 10, pre‐ and coadministration of BAY 2433334 75 mg", "result": 17, "unit": "%"},
      {"measurement": "half-life", "setting": "CYP3A4; human, plasma, oral, 7.5 mg, t1/2, Day −1, midazolam 7.5 mg alone, BAY 2433334 75 mg OD group, median (range), geometric mean not calculated", "result": 287, "unit": "min"},
      {"measurement": "tmax", "setting": "CYP3A4; human, plasma, oral, 7.5 mg, tmax, Day −1, midazolam 7.5 mg alone, BAY 2433334 25 mg OD group, median (range)", "result": 35, "unit": "min"},
      {"measurement": "tmax", "setting": "CYP3A4; human, plasma, oral, 7.5 mg, tmax, Day −1, midazolam 7.5 mg alone, BAY 2433334 75 mg OD group, median (range)", "result": 45, "unit": "min"},
      {"measurement": "tmax", "setting": "CYP3A4; human, plasma, oral, tmax, Day 1, midazolam 7.5 mg with BAY 2433334 25 mg OD, median (range)", "result": 44.5, "unit": "min"},
      {"measurement": "tmax", "setting": "CYP3A4; human, plasma, oral, tmax, Day 1, midazolam 7.5 mg with BAY 2433334 75 mg OD, median (range)", "result": 45, "unit": "min"},
      {"measurement": "tmax", "setting": "CYP3A4; human, plasma, oral, tmax, Day 10, midazolam 7.5 mg with BAY 2433334 25 mg OD, median (range)", "result": 45, "unit": "min"},
      {"measurement": "tmax", "setting": "CYP3A4; human, plasma, oral, tmax, Day 10, midazolam 7.5 mg with BAY 2433334 75 mg OD, median (range)", "result": 45, "unit": "min"}
    ]}
  ]
}
